Patent publication US20230181905A1, “Systems, Devices, and Methods for Enhancing the Neuroprotective Effects of Non-Invasive Gamma Stimulation with Pharmacological Agents” (Massachusetts Institute of Technology, priority 2021, published 2023)

Tested on: gene expression in microglia, oligodendrocytes, neurons and astrocytes
Assay: Single-cell and single-nucleus RNA sequencing of brain tissue
Assay type: in vivo, mouse
Details: 5×FAD mice
Experimental: Gene expression changes in microglia are strongly associated with AD pathogenesis. Thus, the effect of these treatments on gene expression using single-cell RNA sequencing was investigates (10× Genomics, #Chromium Next GEM Single Cell 3′ Kit v3.1, 16 rxns PN-1000268). […] The gene expression changes between treatment conditions in the microglia cluster were examined. […] Further, due to the depth of the gene expression analysis sub-clustering of microglia was performed.
As neurons were not represented from the single-cell RNA-sequencing (FIGS. 8A-12), to study the effect of these treatments on gene expression in neurons, single nucleus RNA-sequencing was performed (10× Genomics, #Chromium Next GEM Kit v3.1, 16 rxns PN-1000268). […] The gene expression changes between treatment conditions in the interneurons cluster were examined.
Mice were killed and the brain tissue was freshly dissected out and the single cell suspension or nuclei was prepared. Single cell RNA libraries were prepared using the Chromium Next GEM Single Cell 3′ Kit v3.1 according to the manufacturer's protocol (10× Genomics). The generated scRNA-seq libraries were sequenced using NovaSeq. Gene counts were obtained by aligning reads to the mouse genome. […]
RNA sequencing: The animals and brain tissues were prepared, and then the single nuclei from the brain tissue was then obtained. […] The RNA-seq data was analyzed in R package. […]

FC(F)(F)c1ccc(CNc2ccc(Cc3c[nH]c4ncc(Cl)cc34)cn2)cn1 [Plx3397, Pexidartinib]
genes related to Tyrobp-trem2-Apoe pathway in microglia (single-cell RNA sequencing, microglia cluster): upregulated | abnormal synaptic transmission genes in E-neurons (visual cortex, snRNA-seq): upregulated
